# Data taken from patent US7348328B2, “MCH antagonists for the treatment of obesity” (Schering Corporation, priority 2001, dated 2008).
# Biological target: T1, MCH receptor (Homo sapiens, UniProt Q99705)
# T1 construct: expressed in transfected cells; host or cells: CHO cells (membranes)
# Assay: MCH Receptor Binding Assay
# Settings: Binding Activity; membranes from CHO cells expressing the MCH receptor, [125I]-MCH; read-out: MCH Ki
# Description: MCH Receptor Binding Assay:
# Membranes from CHO cells expressing the MCH receptor were prepared by lysing cells with 5 mM HEPES for 15 min at 4C. Cell lysates were centrifuged ([…], 15 min) and the pellet was resuspended in 5 mM HEPES. For each 96-well plate (Microlite, Dynex Technologies), 1 mg of cell membranes were incubated with 10 mg of wheat germ agglutinin SPA beads (Amersham) for 5 min at 4 C. in a volume of 10 ml of binding buffer (25 mM HEPES, 10 mM MGCl2, 10 mM NaCl, 5 mM MnCl2, 0.1% BSA). The membrane/bead mixture was centrifuged (1500×g, 3.5 min), the supernatant was aspirated, and the pellet was resuspended in 10 ml binding buffer. The centrifugation, aspiration and resuspension were then repeated. […] Nonspecific binding was determined by including 1 μM MCH in the binding reaction. The binding reaction was incubated at room temperature for 2 h. Plates were then analyzed in a TOPCOUNT microplate scintillation counter (Packard). Data was analyzed and Ki values were determined using GraphPad Prim.
# T1 sequence (Q99705 whole entry): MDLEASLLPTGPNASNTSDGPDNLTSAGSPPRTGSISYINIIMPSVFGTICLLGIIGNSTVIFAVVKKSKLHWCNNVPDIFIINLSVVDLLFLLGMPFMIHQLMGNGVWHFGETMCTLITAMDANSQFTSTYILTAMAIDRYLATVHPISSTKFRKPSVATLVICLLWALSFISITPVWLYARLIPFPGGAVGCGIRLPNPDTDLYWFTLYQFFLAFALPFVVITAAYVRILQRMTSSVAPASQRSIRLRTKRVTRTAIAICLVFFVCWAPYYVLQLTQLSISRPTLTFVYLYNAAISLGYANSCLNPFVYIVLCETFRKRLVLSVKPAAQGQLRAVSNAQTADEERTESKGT
row,Ki [nM],Compound
1,23,N#Cc1cccc([C@@]23CCC(N(CCN4CC[C@@H](O)C4)C(=O)Nc4ccc(F)c(C(F)(F)F)c4)[C@@H]2C3)c1 (some centres unmarked) [Example 199]
2,10,CN(C)CCCCN(C(=O)Nc1ccc(F)c(Cl)c1)[C@@H]1CC[C@]2(c3cccc(C#N)c3)C[C@H]12 [Example 195]
3,4.1,N#Cc1cccc([C@]23CC[C@@H](N(CCN4CCCCC4)C(=O)Nc4ccc(F)c(Cl)c4)[C@H]2C3)c1 [Example 194]
4,18,N#Cc1cccc([C@]23CC[C@@H](N(CCN4CCCC4)C(=O)Nc4ccc(F)c(Cl)c4)[C@H]2C3)c1 [Example 189]

# Same assay, conditions: Table 1b, preferred compounds; read-out: MCH R1 Ki
row,Ki [nM],Compound
1,3.9,N#Cc1cccc([C@]23CC[C@@H](N(CCCCN4CCCC4)C(=O)Nc4ccc(F)c(Cl)c4)[C@H]2C3)c1 [drawing 675]
2,7.1,N#Cc1cccc([C@]23CC[C@@H](N(CCN4CC[C@@H](O)C4)C(=O)Nc4ccc(F)c(C(F)(F)F)c4)[C@H]2C3)c1 [drawing 669]
3,14,O=C(Nc1ccc(F)c(Cl)c1)N(CCN1CCCC1)C1CC=C(c2cccc(Cl)c2)CC1 (centres unmarked)
4,1.6,CC(C)N(CCO)CCN(C(=O)Nc1cc(Cl)nc(Cl)c1)C1CC[C@@]2(c3cccc(C#N)c3)CC2C1 (some centres unmarked)
5,26,CS(=O)(=O)N1CCC(CN(C(=O)Nc2ccc(F)c(C(F)(F)F)c2)[C@@H]2CC[C@@]3(c4cccc(C#N)c4)CC3C2)CC1 (some centres unmarked)
6,5.4,CS(=O)(=O)N1CCC(CN(C(=O)Nc2ccc(F)c(F)c2)[C@@H]2CC[C@@]3(c4cccc(C#N)c4)CC3C2)CC1 (some centres unmarked)
7,3.7,N#Cc1cccc([C@@]23CC[C@@H](N(CCCN4CCC4)C(=O)Nc4ccc(F)c(F)c4)CC2C3)c1 (some centres unmarked)
